Activity calls are given as the source filed them. No cut-off for these calls is given here.
What was measured:
[1] = target: T1, Peroxisome proliferator-activated receptor gamma (Homo sapiens) (UniProt P37231); experiment: Agonist activity at human PPARgamma expressed in CHO cells assessed as increase in receptor transcriptional activity at 1 uM incubated for 24 hrs by dual luciferase reporter gene assay relative to rosiglitazone; format: cell-based
T1 sequence (whole entry): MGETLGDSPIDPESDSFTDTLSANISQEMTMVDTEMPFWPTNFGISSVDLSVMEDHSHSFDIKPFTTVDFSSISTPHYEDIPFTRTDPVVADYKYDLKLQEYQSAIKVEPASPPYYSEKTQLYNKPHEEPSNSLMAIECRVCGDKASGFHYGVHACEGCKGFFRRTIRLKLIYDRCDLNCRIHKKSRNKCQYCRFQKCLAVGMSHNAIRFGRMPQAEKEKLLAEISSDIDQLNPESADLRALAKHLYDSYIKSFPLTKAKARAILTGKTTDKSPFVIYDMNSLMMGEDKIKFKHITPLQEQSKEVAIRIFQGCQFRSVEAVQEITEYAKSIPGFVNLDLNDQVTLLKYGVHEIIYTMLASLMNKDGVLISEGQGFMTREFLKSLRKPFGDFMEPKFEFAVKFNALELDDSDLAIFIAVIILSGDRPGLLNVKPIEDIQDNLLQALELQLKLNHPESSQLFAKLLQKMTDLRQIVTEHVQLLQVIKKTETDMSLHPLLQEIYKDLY

[2] = target: Free fatty acid receptor 1 (Homo sapiens, UniProt O14842); experiment: Agonist activity at GPR40 (unknown origin) expressed in CHO cells co-expressing luc2P/SRE assessed as firefly luciferase activity at 10 uM incubated for 24 hrs hrs by Bright-Glo based serum response element (SRE) luciferase reporter assay relative to TAK875; format: functional, cell-based
[3] = target: T2, Peroxisome proliferator-activated receptor gamma (Homo sapiens, UniProt P37231); experiment: Agonist activity at human PPARgamma expressed in CHO cells assessed as increase in receptor transcriptional activity incubated for 24 hrs by dual luciferase reporter gene assay; format: cell-based
T2 sequence (P37231 whole entry): T1 sequence (whole entry)

STC1 = experiment: Induction of GLP-1 secretion in […] STC1 cells at 100 uM after 1 hrs by ELISA; format: functional, cell-based

Chain of Free fatty acid receptor 1 (O14842 whole entry): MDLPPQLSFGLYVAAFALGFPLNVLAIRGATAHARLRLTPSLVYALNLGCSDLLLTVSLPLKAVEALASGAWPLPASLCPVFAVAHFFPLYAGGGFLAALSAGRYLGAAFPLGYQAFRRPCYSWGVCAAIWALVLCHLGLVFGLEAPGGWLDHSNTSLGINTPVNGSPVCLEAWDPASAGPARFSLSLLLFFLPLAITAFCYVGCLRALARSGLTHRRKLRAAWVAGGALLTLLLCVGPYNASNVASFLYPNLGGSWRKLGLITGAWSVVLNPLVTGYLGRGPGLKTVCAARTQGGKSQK

Compound	Emax [1]	Emax ([2]; filed as agonist)	Emax [2]	other results
Cc1cccc(C)c1-c1cc2cc(CCC(=O)O)ccc2[nH]1	0.52%	69.5%	–	–
O=C(O)CCc1ccc2[nH]c(-c3cccc(Cl)c3F)cc2c1	18.2%	–	6.81%	–
Cc1ccc(-c2cc3cc(CCC(=O)O)ccc3[nH]2)c(C)c1	2.51%	61.8%	–	–
Cc1c(Cl)cccc1-c1cc2cc(CCC(=O)O)ccc2[nH]1	–	109%	–	EC50 ([3]; cho): Not Active
O=C(O)CCc1ccc2[nH]c(-c3ccc(Cl)cc3C(F)(F)F)cc2c1	15.9%	–	7.67%	–
O=C(O)CCc1ccc2[nH]c(-c3ccc(Cl)cc3F)cc2c1	3.64%	–	2.18%	–
O=C(O)CCc1ccc2[nH]c(-c3ccc(Cl)cc3Cl)cc2c1	5.39%	48%	–	–
Cc1ccc(C)c(-c2cc3cc(CCC(=O)O)ccc3n2C)c1	0.01%	–	20.3%	–
O=C(O)CCc1ccc2[nH]c(-c3c(Cl)cccc3Cl)cc2c1	11.5%	78.3%	–	–
O=C(O)CCc1ccc2[nH]c(-c3cc(Cl)ccc3Cl)cc2c1	2.69%	–	22.8%	–
O=C(O)CCc1ccc2[nH]c(-c3ccncc3Cl)cc2c1	0.19%	–	24.7%	–
Cc1cc(F)ccc1-c1cc2cc(CCC(=O)O)ccc2n1C	6.32%	–	16.9%	–
Cc1cc(Cl)ccc1-c1cc2cc(CCC(=O)O)ccc2[nH]1	–	109%	–	EC50 ([3]; read-out: EC50): 27.8 µM; Emax ([1]; filed as agonist): 104%
O=C(O)CCc1ccc2[nH]c(-c3cccc(Cl)c3Cl)cc2c1	12.8%	81.2%	–	–
Cc1cc(Br)ccc1-c1cc2cc(CCC(=O)O)ccc2[nH]1	30.6%	95.3%	–	–
Cc1ccc(Cl)cc1-c1cc2cc(CCC(=O)O)ccc2[nH]1	18.3%	–	35%	–
CCCCC/C=C\C/C=C\CCCCCCCC(=O)O	–	–	–	Activity (STC1): Active

— ChEMBL document CHEMBL4808171, “Structure-Activity Relationship Study and Biological Evaluation of 2-(Disubstituted phenyl)-indole-5-propanoic Acid Derivatives as GPR40 Full Agonists” (J Med Chem, 2021)
